What was measured:
[1] = biological target: T1, Serine protease 1 (Bos taurus, UniProt P00760); assay: Inhibition of bovine trypsin
T1 sequence (P00760 whole entry): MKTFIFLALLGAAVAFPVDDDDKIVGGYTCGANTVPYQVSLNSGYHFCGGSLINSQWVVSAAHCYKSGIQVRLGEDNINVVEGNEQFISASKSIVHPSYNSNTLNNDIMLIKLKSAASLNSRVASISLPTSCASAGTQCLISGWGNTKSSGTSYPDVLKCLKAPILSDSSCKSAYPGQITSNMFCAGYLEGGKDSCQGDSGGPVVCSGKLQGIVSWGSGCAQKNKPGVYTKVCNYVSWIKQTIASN

[2] = organism: Bos taurus; assay: Inhibition of trypsin, selectivity with respect to thrombin
[3] = biological target: Prothrombin (Homo sapiens, UniProt P00734); assay: Inhibition of human alpha-thrombin.
[4] = Compound was tested for inhibition of activated protein C. selectivity with respect to thrombin
[5] = Compound was tested for inhibition of plasmin, selectivity with respect to thrombin
[6] = Compound was tested for inhibition of streptokinase (SK). selectivity with respect to thrombin
[7] = Compound was tested for inhibition of tissue-type plasminogen activator (tissue plasminogen activator), selectivity with respect to thrombin

**Q.** For `CN[C@H](Cc1ccccc1)C(=O)N1CCC[C@H]1C(=O)N[C@@H](CCCNC(=N)N)C(=O)c1ccccn1`, which Ki [1] is on record?
**A.** 73 nM

**Q.** And the Selectivity [2]?
**A.** 0.8

**Q.** And the Ki [3]?
**A.** 85 nM

**Q.** For `CN[C@H](Cc1ccccc1)C(=O)N1CCC[C@H]1C(=O)N[C@@H](CCCNC(=N)N)C(=O)c1nccn1C`, which Selectivity [2] is on record?
**A.** 88

**Q.** With `CN[C@H](Cc1ccccc1)C(=O)N1CCC[C@H]1C(=O)N[C@@H](CCCNC(=N)N)C(=O)c1nc2ccccc2n1C` as the compound, how does the Ki [1] read?
**A.** 290 nM

**Q.** What about the Selectivity [2] of the same compound?
**A.** 36

**Q.** What about the Ki [3] of the same compound?
**A.** 8.1 nM

**Q.** For `CN[C@H](Cc1ccccc1)C(=O)N1CCC[C@H]1C(=O)N[C@@H](CCCN=C(N)N)C(=O)c1nc2ccccc2s1`, which Selectivity [4] is on record?
**A.** 19000

**Q.** And the Selectivity [5]?
**A.** 12000

**Q.** And the Selectivity [6]?
**A.** 6300

**Q.** And the Selectivity [7]?
**A.** 3300

**Q.** What about the Selectivity [2] of the same compound?
**A.** 16

**Q.** And the Ki [3]?
**A.** 0.19 nM

**Q.** With `CN[C@H](Cc1ccccc1)C(=O)N1CCC[C@H]1C(=O)N[C@@H](CCCNC(=N)N)C(=O)c1nc2c(s1)CCCC2` as the compound, how does the Ki [1] read?
**A.** 4.4 nM

**Q.** And the Ki [3]?
**A.** 3.4 nM

**Q.** With `CN[C@H](Cc1ccccc1)C(=O)N1CCC[C@H]1C(=O)N[C@@H](CCCN=C(N)N)C(=O)c1nc2c(s1)CCCC2` as the compound, how does the Selectivity [2] read?
**A.** 1.3

**Q.** For `CN[C@H](Cc1ccccc1)C(=O)N1CCC[C@H]1C(=O)N[C@H](C=O)CCCNC(=N)N`, which Selectivity [4] is on record?
**A.** 72

**Q.** What about the Selectivity [5] of the same compound?
**A.** 33

**Q.** What about the Selectivity [6] of the same compound?
**A.** 170

**Q.** What about the Selectivity [7] of the same compound?
**A.** 130

**Q.** And the Selectivity [2]?
**A.** 0.39

**Q.** Which Ki [1] does the source give for `CN[C@H](Cc1ccccc1)C(=O)N1CCC[C@H]1C(=O)N[C@@H](CCCNC(=N)N)C(=O)c1nccs1` here?
**A.** 1.6 nM

**Q.** What about the Ki [3] of the same compound?
**A.** 3.6 nM

**Q.** Which Selectivity [2] does the source give for `CN[C@H](Cc1ccccc1)C(=O)N1CCC[C@H]1C(=O)N[C@@H](CCCN=C(N)N)C(=O)c1nc2ccccc2[nH]1` here?
**A.** 3.2

**Q.** Which results are given for `Cc1ccc(S(=O)(=O)N/C(N)=N\CCC[C@@H](NC(=O)[C@H]2CCCN2C(=O)[C@H](Cc2ccccc2)N(C)C(=O)OCc2ccccc2)C(O)c2nc3ccccc3s2)cc1` (some centres undefined)?
**A.** Ki [1]: > 150000 nM; Ki [3]: 16000 nM

**Q.** For `CN[C@H](Cc1ccccc1)C(=O)N1CCC[C@H]1C(=O)N[C@@H](CCCN=C(N)N)C(=O)C1=NC(=O)C2C=CC=CC2=N1` (some centres undefined), which Ki [1] is on record?
**A.** 8.2 nM

**Q.** And the Selectivity [2]?
**A.** 0.6

**Q.** What about the Ki [3] of the same compound?
**A.** 15 nM

**Q.** For `CN[C@H](Cc1ccccc1)C(=O)N1CCC[C@H]1C(=O)N[C@@H](CCCN=C(N)N)C(=O)c1nccn1C`, which Ki [1] is on record?
**A.** 4400 nM

**Q.** And the Ki [3]?
**A.** 50 nM

**Q.** What does the source list for `CN[C@H](Cc1ccccc1)C(=O)N1CCC[C@H]1C(=O)N[C@@H](CCCN=C(N)N)C(=O)c1nc2ccccc2o1`?
**A.** Ki [1]: 2.9 nM; Selectivity [2]: 0.8; Ki [3]: 3.8 nM

**Q.** Which results are given for `CN[C@H](Cc1ccccc1)C(=O)N1CCC[C@H]1C(=O)N[C@@H](CCCNC(=N)N)C(=O)c1nc2ccccc2[nH]1`?
**A.** Ki [1]: 38 nM; Ki [3]: 12 nM

**Q.** For `CN[C@H](Cc1ccccc1)C(=O)N1CCC[C@H]1C(=O)N[C@@H](CCCN=C(N)N)C(=O)c1nccs1`, which Selectivity [2] is on record?
**A.** 0.4

**Q.** Which Ki [1] does the source give for `Cc1ccc(S(=O)(=O)NC(=N)NCCC[C@H](NC(=O)[C@@H]2CCCN2C(=O)[C@@H](Cc2ccccc2)N(C)C(=O)OCc2ccccc2)C(O)c2nc3ccccc3s2)cc1` (some centres undefined) here?
**A.** > 150000 nM

**Q.** And the Ki [3]?
**A.** 5300 nM
